Patent publication US9527869B2, “Indolizine derivatives as phoshoinositide 3-kinases inhibitors” (CHIESI FARMACEUTICI S.P.A., priority 2014, dated 2016)

Columns and labels:
Assay type in all cases: biochemical
PI3Kβ = biological target: T1, PI3Kβ (Homo sapiens, UniProt P42338); assay: In vitro determination of the PI3K enzyme inhibitory activity in the cell free assay (ADP-Glo Kinase Assay), PI3Kβ; conditions: ATP 100 μM, read-out: PI3K beta inhibition
T1 construct: purchased Millipore Ltd (Billerica, Mass.)
T1 sequence (P42338 whole entry): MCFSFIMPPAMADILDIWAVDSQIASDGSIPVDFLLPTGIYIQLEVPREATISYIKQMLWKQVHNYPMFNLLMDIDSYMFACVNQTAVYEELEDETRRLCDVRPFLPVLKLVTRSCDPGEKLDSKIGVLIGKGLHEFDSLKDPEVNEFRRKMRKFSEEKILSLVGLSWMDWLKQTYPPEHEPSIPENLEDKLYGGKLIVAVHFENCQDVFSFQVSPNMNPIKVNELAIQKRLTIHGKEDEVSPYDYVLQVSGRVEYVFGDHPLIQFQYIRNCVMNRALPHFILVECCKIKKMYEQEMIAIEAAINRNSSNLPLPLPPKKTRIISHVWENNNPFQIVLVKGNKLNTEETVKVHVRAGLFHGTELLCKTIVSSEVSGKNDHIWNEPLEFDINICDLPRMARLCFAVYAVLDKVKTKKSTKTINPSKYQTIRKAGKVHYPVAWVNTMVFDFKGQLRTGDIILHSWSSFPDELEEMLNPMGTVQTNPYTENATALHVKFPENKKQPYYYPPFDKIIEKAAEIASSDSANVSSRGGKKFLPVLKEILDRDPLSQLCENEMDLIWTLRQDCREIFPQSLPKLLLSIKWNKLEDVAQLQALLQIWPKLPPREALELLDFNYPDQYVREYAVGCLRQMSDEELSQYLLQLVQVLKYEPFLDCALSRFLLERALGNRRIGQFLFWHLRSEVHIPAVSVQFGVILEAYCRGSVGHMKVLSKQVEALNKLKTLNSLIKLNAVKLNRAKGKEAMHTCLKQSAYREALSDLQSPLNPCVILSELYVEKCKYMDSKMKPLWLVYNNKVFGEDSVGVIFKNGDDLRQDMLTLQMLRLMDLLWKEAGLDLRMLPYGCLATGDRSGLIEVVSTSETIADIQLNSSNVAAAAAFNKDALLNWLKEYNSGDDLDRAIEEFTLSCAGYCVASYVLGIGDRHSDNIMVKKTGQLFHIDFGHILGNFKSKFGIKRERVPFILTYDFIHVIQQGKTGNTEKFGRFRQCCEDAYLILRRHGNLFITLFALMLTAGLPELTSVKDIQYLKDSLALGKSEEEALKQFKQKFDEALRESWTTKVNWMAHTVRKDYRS
T1 sequence (P27986 whole entry partner): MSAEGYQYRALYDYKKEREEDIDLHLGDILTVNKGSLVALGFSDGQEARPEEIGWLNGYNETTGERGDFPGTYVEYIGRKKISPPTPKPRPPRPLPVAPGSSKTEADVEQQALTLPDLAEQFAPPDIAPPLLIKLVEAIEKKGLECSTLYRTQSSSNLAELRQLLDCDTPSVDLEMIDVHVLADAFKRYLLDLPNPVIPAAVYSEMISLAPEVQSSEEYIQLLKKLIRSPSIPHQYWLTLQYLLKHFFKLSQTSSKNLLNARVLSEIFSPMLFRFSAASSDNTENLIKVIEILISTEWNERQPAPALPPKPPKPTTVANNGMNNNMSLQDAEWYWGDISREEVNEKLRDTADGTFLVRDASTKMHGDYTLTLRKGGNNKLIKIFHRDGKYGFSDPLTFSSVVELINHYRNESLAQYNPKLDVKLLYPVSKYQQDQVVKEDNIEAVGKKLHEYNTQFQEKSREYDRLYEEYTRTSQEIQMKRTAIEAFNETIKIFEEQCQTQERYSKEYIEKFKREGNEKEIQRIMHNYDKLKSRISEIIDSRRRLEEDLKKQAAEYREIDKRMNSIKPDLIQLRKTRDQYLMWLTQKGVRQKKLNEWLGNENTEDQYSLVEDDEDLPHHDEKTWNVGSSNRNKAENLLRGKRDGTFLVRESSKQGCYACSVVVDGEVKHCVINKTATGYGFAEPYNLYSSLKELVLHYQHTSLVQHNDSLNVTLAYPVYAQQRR
Outline: (§1)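 IC50 values came from four-parameter logistic fitting of ADP-Glo luminescence after 60 min kinase reactions at room temperature. ATP (final) was set per isoform: α 50 μM, β 100 μM, γ 30 μM, δ 80 μM. Substrates were phosphatidylinositol and phosphatidylserine (50 μM in 2× Tris pH 7.5 buffer), with human recombinant enzymes.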

PI3Kδ = biological target: T2, PI3Kδ (Homo sapiens, UniProt O00329); assay: In vitro determination of the PI3K enzyme inhibitory activity in the cell free assay (ADP-Glo Kinase Assay), PI3Kδ; conditions: ATP 80 μM, read-out: PI3K delta inhibition
T2 construct: purchased Millipore Ltd (Billerica, Mass.)
T2 sequence (O00329 whole entry): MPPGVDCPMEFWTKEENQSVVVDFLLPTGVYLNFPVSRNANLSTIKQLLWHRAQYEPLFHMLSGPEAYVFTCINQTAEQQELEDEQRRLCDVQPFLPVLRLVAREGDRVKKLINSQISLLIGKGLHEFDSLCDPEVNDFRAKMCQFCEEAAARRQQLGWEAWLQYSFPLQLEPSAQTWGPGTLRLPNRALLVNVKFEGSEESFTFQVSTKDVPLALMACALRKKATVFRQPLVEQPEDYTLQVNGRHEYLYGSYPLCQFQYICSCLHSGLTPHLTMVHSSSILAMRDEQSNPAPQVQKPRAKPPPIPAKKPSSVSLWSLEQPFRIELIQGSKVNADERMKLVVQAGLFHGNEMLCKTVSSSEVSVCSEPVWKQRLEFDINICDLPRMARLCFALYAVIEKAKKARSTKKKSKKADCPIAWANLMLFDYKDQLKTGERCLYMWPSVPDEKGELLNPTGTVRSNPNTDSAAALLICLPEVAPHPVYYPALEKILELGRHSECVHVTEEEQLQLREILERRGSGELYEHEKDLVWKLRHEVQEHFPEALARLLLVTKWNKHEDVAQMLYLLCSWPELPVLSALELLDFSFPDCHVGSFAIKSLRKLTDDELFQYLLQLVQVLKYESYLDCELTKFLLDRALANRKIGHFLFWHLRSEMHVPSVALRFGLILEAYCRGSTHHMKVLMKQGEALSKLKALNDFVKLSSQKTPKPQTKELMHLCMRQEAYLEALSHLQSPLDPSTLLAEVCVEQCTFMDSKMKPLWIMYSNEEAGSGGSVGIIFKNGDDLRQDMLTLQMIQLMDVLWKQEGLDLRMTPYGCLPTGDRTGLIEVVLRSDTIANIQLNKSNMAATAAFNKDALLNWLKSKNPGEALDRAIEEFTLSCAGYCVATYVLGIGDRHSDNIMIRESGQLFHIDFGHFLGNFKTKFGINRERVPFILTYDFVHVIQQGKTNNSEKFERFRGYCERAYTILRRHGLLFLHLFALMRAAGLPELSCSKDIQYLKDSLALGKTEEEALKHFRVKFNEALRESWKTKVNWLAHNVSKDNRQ
T2 sequence (P27986 whole entry partner): as the sequence (P27986 whole entry partner) above
Outline: as §1

PI3Kγ = biological target: T3, PI3Kγ (Homo sapiens, UniProt P48736); assay: In vitro determination of the PI3K enzyme inhibitory activity in the cell free assay (ADP-Glo Kinase Assay), PI3Kγ; conditions: ATP 30 μM, read-out: PI3K gamma inhibition
T3 construct: purchased Millipore Ltd (Billerica, Mass.)
T3 sequence (P48736 whole entry): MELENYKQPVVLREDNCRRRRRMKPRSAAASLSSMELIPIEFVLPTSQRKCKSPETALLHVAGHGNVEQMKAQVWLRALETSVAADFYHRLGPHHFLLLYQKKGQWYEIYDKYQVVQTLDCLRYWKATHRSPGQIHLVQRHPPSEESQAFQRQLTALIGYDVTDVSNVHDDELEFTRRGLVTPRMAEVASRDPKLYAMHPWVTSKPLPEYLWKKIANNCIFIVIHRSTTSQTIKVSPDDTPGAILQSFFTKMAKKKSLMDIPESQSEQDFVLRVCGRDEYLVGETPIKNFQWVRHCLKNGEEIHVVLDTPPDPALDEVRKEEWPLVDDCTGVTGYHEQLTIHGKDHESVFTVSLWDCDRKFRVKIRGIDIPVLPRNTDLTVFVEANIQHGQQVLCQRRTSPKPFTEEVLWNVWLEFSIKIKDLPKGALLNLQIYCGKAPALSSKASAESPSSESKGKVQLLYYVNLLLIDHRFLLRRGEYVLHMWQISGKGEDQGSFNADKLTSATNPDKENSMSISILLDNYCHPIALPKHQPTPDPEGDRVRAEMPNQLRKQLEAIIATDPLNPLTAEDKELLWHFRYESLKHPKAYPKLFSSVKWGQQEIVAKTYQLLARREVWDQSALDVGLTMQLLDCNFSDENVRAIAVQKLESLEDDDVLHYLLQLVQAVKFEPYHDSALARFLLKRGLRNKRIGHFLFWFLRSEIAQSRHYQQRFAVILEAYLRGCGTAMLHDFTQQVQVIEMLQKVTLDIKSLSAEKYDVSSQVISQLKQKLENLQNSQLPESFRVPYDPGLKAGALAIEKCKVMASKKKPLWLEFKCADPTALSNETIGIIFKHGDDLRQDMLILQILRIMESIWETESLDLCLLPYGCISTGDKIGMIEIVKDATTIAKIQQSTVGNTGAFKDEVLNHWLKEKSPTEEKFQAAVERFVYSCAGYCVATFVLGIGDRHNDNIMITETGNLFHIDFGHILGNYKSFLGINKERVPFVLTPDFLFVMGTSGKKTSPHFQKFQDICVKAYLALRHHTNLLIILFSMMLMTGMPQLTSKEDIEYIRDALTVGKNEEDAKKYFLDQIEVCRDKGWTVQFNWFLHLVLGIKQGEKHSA
Outline: as §1

PI3Kα = biological target: T4, PI3Kα (Homo sapiens, UniProt P42336); assay: In vitro determination of the PI3K enzyme inhibitory activity in the cell free assay (ADP-Glo Kinase Assay), PI3Kα; conditions: ATP 50 μM, read-out: PI3K alpha inhibition
T4 construct: purchased Millipore Ltd (Billerica, Mass.)
T4 sequence (P42336 whole entry): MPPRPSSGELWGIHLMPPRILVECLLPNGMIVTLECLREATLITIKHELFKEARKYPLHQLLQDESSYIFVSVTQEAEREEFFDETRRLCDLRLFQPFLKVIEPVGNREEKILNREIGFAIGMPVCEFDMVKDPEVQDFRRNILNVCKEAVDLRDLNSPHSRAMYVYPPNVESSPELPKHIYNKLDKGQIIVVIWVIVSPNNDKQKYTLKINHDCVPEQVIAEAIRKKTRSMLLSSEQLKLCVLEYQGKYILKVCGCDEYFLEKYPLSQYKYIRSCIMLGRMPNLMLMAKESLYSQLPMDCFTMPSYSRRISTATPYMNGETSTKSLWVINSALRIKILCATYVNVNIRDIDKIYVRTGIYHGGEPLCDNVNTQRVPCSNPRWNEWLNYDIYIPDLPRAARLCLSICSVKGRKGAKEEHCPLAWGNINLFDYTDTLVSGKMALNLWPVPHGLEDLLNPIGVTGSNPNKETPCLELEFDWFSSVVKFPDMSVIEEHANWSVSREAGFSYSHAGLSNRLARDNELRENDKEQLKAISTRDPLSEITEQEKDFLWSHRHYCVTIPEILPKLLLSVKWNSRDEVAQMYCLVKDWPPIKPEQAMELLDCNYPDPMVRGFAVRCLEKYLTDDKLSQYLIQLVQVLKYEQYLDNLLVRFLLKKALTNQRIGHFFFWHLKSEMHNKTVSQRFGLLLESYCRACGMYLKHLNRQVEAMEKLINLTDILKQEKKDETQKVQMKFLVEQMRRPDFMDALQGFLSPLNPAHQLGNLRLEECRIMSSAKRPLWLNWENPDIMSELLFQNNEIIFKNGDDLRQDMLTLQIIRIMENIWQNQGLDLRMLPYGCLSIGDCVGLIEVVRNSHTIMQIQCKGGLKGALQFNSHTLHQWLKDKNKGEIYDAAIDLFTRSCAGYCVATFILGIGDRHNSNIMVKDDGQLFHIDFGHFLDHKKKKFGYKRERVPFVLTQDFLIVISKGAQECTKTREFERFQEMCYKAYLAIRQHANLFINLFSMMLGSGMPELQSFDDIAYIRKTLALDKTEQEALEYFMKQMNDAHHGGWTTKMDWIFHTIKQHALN
T4 sequence (P27986 whole entry partner): as the sequence (P27986 whole entry partner) above
Outline: as §1

SMILES | IC50 (PI3Kβ) | IC50 (PI3Kδ) | IC50 (PI3Kγ) | IC50 (PI3Kα)
CC(c1cc2ccccn2c1-c1ccccc1)n1nc(-c2cc(O)cc(F)c2)c2c(N)ncnc21 (stereo not shown) [Example 85, 3-{4-amino-1-[1-(3-phenylindolizin-2-yl)ethyl]-1H-pyrazolo[3,4-d]pyrimidin-3-yl}-5-fluorophenol] | 0.01 to 1 µM | 0.01 to 1 µM | > 1 µM | > 1 µM
CC(c1cc2ccccn2c1-c1ccccc1F)n1nc(-c2cc(O)cc(F)c2)c2c(N)ncnc21 (stereo not shown) [Example 86, 3-(4-amino-1-{1-[3-(2-fluorophenyl)indolizin-2-yl]ethyl}-1H-pyrazolo[3,4-d]pyrimidin-3-yl)-5-fluoro-phenol] | > 1 µM | 0.01 to 1 µM | 0.01 to 1 µM | > 1 µM
Cc1ccc2cc(C(C)n3nc(-c4cc(O)cc(F)c4)c4c(N)ncnc43)c(-c3ccccn3)n2c1 (stereo not shown) [Example 87, 3-(4-amino-1-{1-[6-methyl-3-(pyridin-2-yl)indolizin-2-yl]ethyl}-1H-pyrazolo[3,4-d]pyrimidin-3-yl)-5-fluorophenol] | 0.01 to 1 µM | 0.01 to 1 µM | > 1 µM | > 1 µM
CC(c1cc2ccc(C(F)(F)F)cn2c1-c1ccccn1)n1nc(-c2cc(O)cc(F)c2)c2c(N)ncnc21 (stereo not shown) [Example 88, 3-(4-amino-1-{1-[3-(pyridin-2-yl)-6-(trifluoromethyl)indolizin-2-yl]ethyl}-1H-pyrazolo[3,4-d]pyrimidin-3-yl)-5-fluorophenol] | > 1 µM | 0.01 to 1 µM | > 1 µM | > 1 µM
Cc1c(C(C)n2nc(-c3cc(O)cc(F)c3)c3c(N)ncnc32)c(-c2ccccn2)n2ccccc12 (stereo not shown) [Example 89, 3-(4-amino-1-{1-[1-methyl-3-(pyridin-2-yl)indolizin-2-yl]ethyl}-1H-pyrazolo[3,4-d]pyrimidin-3-yl)-5-fluorophenol] | 0.01 to 1 µM | 0.01 to 1 µM | 0.01 to 1 µM | 0.01 to 1 µM
CC(c1cc2ccccn2c1-c1ccc(CN2CCOCC2)s1)n1nc(-c2cc(O)cc(F)c2)c2c(N)ncnc21 (stereo not shown) [Example 90, 3-[4-amino-1-(1-{3-[5-(morpholin-4-ylmethyl)thiophen-2-yl]indolizin-2-yl}ethyl)-1H-pyrazolo[3,4-d]pyrimidin-3-yl]-5-fluorophenol] | 0.01 to 1 µM | < 0.01 µM | 0.01 to 1 µM | 0.01 to 1 µM
CC(c1cc2ccccn2c1-c1ccc(CN2CCOCC2)cc1)n1nc(-c2cc(O)cc(F)c2)c2c(N)ncnc21 (stereo not shown) [Example 91, 3-[4-amino-1-(1-{3-[4-(morpholin-4-ylmethyl)phenyl]indolizin-2-yl}ethyl)-1H-pyrazolo[3,4-d]pyrimidin-3-yl]-5-fluorophenol] | > 1 µM | 0.01 to 1 µM | > 1 µM | > 1 µM
CC(c1cc2ccccn2c1-c1ccc(CN(C)C)cc1)n1nc(-c2cc(O)cc(F)c2)c2c(N)ncnc21 (stereo not shown) [Example 92, 3-{4-amino-1-[1-(3-{4-[(dimethylamino)methyl]phenyl}indolizin-2-yl)ethyl]-1H-pyrazolo[3,4-d]pyrimidin-3-yl}-5-fluorophenol] | 0.01 to 1 µM | 0.01 to 1 µM | > 1 µM | > 1 µM
CC(c1cc2ccccn2c1-c1cncs1)n1nc(-c2cc(O)cc(F)c2)c2c(N)ncnc21 (stereo not shown) [Example 94, 3-(4-amino-1-{1-[3-(1,3-thiazol-5-yl)indolizin-2-yl]ethyl}-1H-pyrazolo[3,4-d]pyrimidin-3-yl)-5-fluorophenol] | 0.01 to 1 µM | < 0.01 µM | 0.01 to 1 µM | 0.01 to 1 µM
CC(c1cc2ccccn2c1N1CCCC1=O)n1nc(-c2cc(O)cc(F)c2)c2c(N)ncnc21 (stereo not shown) [Example 95, 1-(2-{1-[4-amino-3-(3-fluoro-5-hydroxyphenyl)-1H-pyrazolo[3,4-d]pyrimidin-1-yl]ethyl}indolizin-3-yl)pyrrolidin-2-one] | 0.01 to 1 µM | < 0.01 µM | 0.01 to 1 µM | 0.01 to 1 µM
CC(c1cc2cccnn2c1-c1ccccn1)n1nc(-c2cc(O)cc(F)c2)c2c(N)ncnc21 (stereo not shown) [Example 96, 3-(4-amino-1-{1-[7-(pyridin-2-yl)pyrrolo[1,2-b]pyridazin-6-yl]ethyl}-1H-pyrazolo[3,4-d]pyrimidin-3-yl)-5-fluorophenol] | 0.01 to 1 µM | < 0.01 µM | > 1 µM | > 1 µM
Nc1ncnc2c1c(-c1cc(O)cc(F)c1)nn2Cc1cc2ccccn2c1-c1ccccn1 [Example 97, 3-(4-amino-1-{[3-(pyridin-2-yl)indolizin-2-yl]methyl}-1H-pyrazolo[3,4-d]pyrimidin-3-yl)-5-fluorophenol] | 0.01 to 1 µM | < 0.01 µM | 0.01 to 1 µM | 0.01 to 1 µM
Nc1ncnc2c1c(-c1cc(O)cc(F)c1)nn2Cc1cc2ccccn2c1-c1cccnc1 [Example 98, 3-(4-amino-1-{[3-(pyridin-3-yl)indolizin-2-yl]methyl}-1H-pyrazolo[3,4-d]pyrimidin-3-yl)-5-fluorophenol] | 0.01 to 1 µM | 0.01 to 1 µM | 0.01 to 1 µM | 0.01 to 1 µM
Nc1ncnc2c1c(-c1cc(O)cc(F)c1)nn2Cc1cc2ccccn2c1-c1ccncc1 [Example 99, 3-(4-amino-1-{[3-(pyridin-4-yl)indolizin-2-yl]methyl}-1H-pyrazolo[3,4-d]pyrimidin-3-yl)-5-fluorophenol] | 0.01 to 1 µM | < 0.01 µM | 0.01 to 1 µM | 0.01 to 1 µM
Nc1ncnc2c1c(-c1cc(O)cc(F)c1)nn2Cc1cc2cccnn2c1-c1ccccn1 [Example 100, 3-(4-amino-1-{[7-(pyridin-2-yl)pyrrolo[1,2-b]pyridazin-6-yl]methyl}-1H-pyrazolo[3,4-d]pyrimidin-3-yl)-5-fluorophenol] | 0.01 to 1 µM | < 0.01 µM | 0.01 to 1 µM | > 1 µM
CC(c1cc2ccccn2c1C1=CCNCC1)n1nc(-c2cc(O)cc(F)c2)c2c(N)ncnc21 (stereo not shown) [Example 101, 3-(4-amino-1-{1-[3-(1,2,3,6-tetrahydropyridin-4-yl)indolizin-2-yl]ethyl}-1H-pyrazolo[3,4-d]pyrimidin-3-yl)-5-fluorophenol] | 0.01 to 1 µM | 0.01 to 1 µM | > 1 µM | > 1 µM
CC(c1cc2ccccn2c1-c1ccccn1)n1nc(C#CCO)c2c(N)ncnc21 (stereo not shown) [Example 102, 3-(4-amino-1-{1-[3-(pyridin-2-yl)indolizin-2-yl]ethyl}-1H-pyrazolo[3,4-d]pyrimidin-3-yl)prop-2-yn-1-ol] | > 1 µM | 0.01 to 1 µM | > 1 µM | > 1 µM
CC(c1cc2ccccn2c1-c1ccccn1)n1nc(-c2cnc(N)s2)c2c(N)ncnc21 (stereo not shown) [Example 103, 5-(4-amino-1-{1-[3-(pyridin-2-yl)indolizin-2-yl]ethyl}-1H-pyrazolo[3,4-d]pyrimidin-3-yl)-1,3-thiazol-2-amine] | 0.01 to 1 µM | 0.01 to 1 µM | 0.01 to 1 µM | > 1 µM
CC(c1cc2cc(Cl)ccn2c1-c1ccccn1)n1nc(-c2cc(O)cc(F)c2)c2c(N)ncnc21 (stereo not shown) [Example 104, 3-(4-amino-1-{1-[7-chloro-3-(pyridin-2-yl)indolizin-2-yl]ethyl}-1H-pyrazolo[3,4-d]pyrimidin-3-yl)-5-fluorophenol] | 0.01 to 1 µM | < 0.01 µM | 0.01 to 1 µM | 0.01 to 1 µM
Cc1ccn2c(-c3ccccn3)c(C(C)n3nc(-c4cc(O)cc(F)c4)c4c(N)ncnc43)cc2c1 (stereo not shown) [Example 105, 3-(4-amino-1-{1-[7-methyl-3-(pyridin-2-yl)indolizin-2-yl]ethyl}-1H-pyrazolo[3,4-d]pyrimidin-3-yl)-5-fluorophenol] | > 1 µM | 0.01 to 1 µM | > 1 µM | > 1 µM
Cc1cc(-c2c(C(C)n3nc(-c4cc(O)cc(F)c4)c4c(N)ncnc43)cc3ccccn23)ccn1 (stereo not shown) [Example 106, 3-(4-amino-1-{1-[3-(2-methylpyridin-4-yl)indolizin-2-yl]ethyl}-1H-pyrazolo[3,4-d]pyrimidin-3-yl)-5-fluorophenol] | 0.01 to 1 µM | < 0.01 µM | 0.01 to 1 µM | > 1 µM
Cc1cc(-c2c(C(C)n3nc(-c4cncc(O)c4)c4c(N)ncnc43)cc3ccccn23)ccn1 (stereo not shown) [Example 107, 5-(4-amino-1-{1-[3-(2-methylpyridin-4-yl)indolizin-2-yl]ethyl}-1H-pyrazolo[3,4-d]pyrimidin-3-yl)pyridin-3-ol] | 0.01 to 1 µM | < 0.01 µM | 0.01 to 1 µM | > 1 µM
CC(c1cc2ccccn2c1-c1ccc(CN2CCOCC2)cn1)n1nc(-c2cc(O)cc(F)c2)c2c(N)ncnc21 (stereo not shown) [Example 108, 3-[4-amino-1-(1-{3-[5-(morpholin-4-ylmethyl)pyridin-2-yl]indolizin-2-yl}ethyl)-1H-pyrazolo[3,4-d]pyrimidin-3-yl]-5-fluorophenol] | 0.01 to 1 µM | < 0.01 µM | > 1 µM | > 1 µM
CC(c1cc2ccccn2c1-c1ccc(CN(C)C)cn1)n1nc(-c2cc(O)cc(F)c2)c2c(N)ncnc21 (stereo not shown) [Example 109, 3-{4-amino-1-[1-(3-{5-[(dimethylamino)-methyl]pyridin-2-yl}indolizin-2-yl)ethyl]-1H-pyrazolo[3,4-d]pyrimidin-3-yl}-5-fluorophenol] | 0.01 to 1 µM | 0.01 to 1 µM | > 1 µM | > 1 µM
CC(c1cc2ccccn2c1-c1cccc(CN2CCOCC2)n1)n1nc(-c2cc(O)cc(F)c2)c2c(N)ncnc21 (stereo not shown) [Example 110, 3-[4-amino-1-(1-{3-[6-(morpholin-4-ylmethyl)pyridin-2-yl]indolizin-2-yl}ethyl)-1H-pyrazolo[3,4-d]-pyrimidin-3-yl]-5-fluorophenol] | 0.01 to 1 µM | < 0.01 µM | > 1 µM | > 1 µM
